We go through 23 molecules from ChEMBL document CHEMBL3727348, “3-(aryl or heteroaryl) methyleneindolin-2-one derivatives as inhibitors of cancer stem cell pathway kinases for the treatment of cancer” (2014).

The IC50 is the point on the concentration scale where inhibition reaches its midpoint.

Common to all, as to type: functional, cell-based
The test system of test [1] is ACHN. The experiment in a line: Cytotoxic activity against human ACHN bulk cells incubated for 72 hrs by Cell-titer-Glo luminescence assay.
Test [2] concerns FaDu. Kind of test: Cytotoxic activity against human FADU cancer stem cells incubated for 72 hrs by Cell-titer-Glo luminescence assay.
Test [3] concerns FaDu. The experiment in a line: Cytotoxic activity against human FADU bulk cells incubated for 72 hrs by Cell-titer-Glo luminescence assay.

Regarding `O=C1Nc2ccc(-c3csc(-c4ccccc4)n3)cc2/C1=C/c1[nH]c(C(=O)O)c2c1CCCC2`, the IC50 in test [1] turned out to be 24.9 µM; in test [2], 4.49 µM.

In the case of `CCN(CC)CCNC(=O)c1c(C)[nH]c(/C=C2\C(=O)Nc3ccc(-c4cnc(-c5ccccc5)o4)cc32)c1C`, the IC50 in test [3] turned out to be 9.73 µM; in test [1], 12.2 µM; in test [2], 41.5 µM.

For `CCN(CC)CCNC(=O)c1c(C)[nH]c(/C=C2\C(=O)Nc3ccc(C4CCN(c5ncccn5)CC4)cc32)c1C`, the IC50 in test [3] was found to be 6.47 µM; in test [2] it was 18.8 µM.

With `Cc1[nH]c(/C=C2\C(=O)Nc3ccc(-c4ccc(-c5ccccc5)s4)cc32)c(C)c1C(=O)NCCN1CCCC1`, the results for the IC50 in test [3] and in test [2] were 4.44 µM and 1.64 µM, respectively.

On to `Cc1cc(C)c(/C=C2\C(=O)Nc3ccc(-c4ccc(C(=O)c5ccccc5)cc4)cc32)[nH]1`, for which the IC50 in test [3] was determined as 22.4 µM; in test [1], 21.8 µM.

For `Cc1cc(C)c(/C=C2\C(=O)Nc3ccc(-c4ccc5ccccc5n4)cc32)[nH]1`, in test [1], the 50% inhibitory concentration (IC50) is 7.44 µM.

Consider `CCN(CC)CCNC(=O)c1c(C)[nH]c(/C=C2\C(=O)Nc3ccc(-c4nc(-c5ccccc5)n[nH]4)cc32)c1C`, for which the figures for the IC50 in test [3] and in test [2] were 6.16 µM and 2.8 µM, respectively.

In the case of `CCN(CC)CCNC(=O)c1c(C)[nH]c(/C=C2\C(=O)Nc3ccc(-c4ccnn4-c4ccc(C#N)cc4)cc32)c1C`, the IC50 in test [3] was 17.3 µM; in test [2] it was 4.96 µM.

Take `Cc1[nH]c(/C=C2\C(=O)Nc3ccc(-c4cnc(-c5ccccc5)o4)cc32)c(C)c1C(=O)N1CCN(C)CC1`: the results for the IC50 in test [3] and in test [2] were 12.1 µM and 9.35 µM, respectively.

As for `CCN(CC)CCNC(=O)c1c(C)[nH]c(/C=C2\C(=O)Nc3ccc(-c4cnc(-c5ccccc5)[nH]4)cc32)c1C`, the IC50 amounted to 5.34 µM in test [3] and 20.6 µM in test [1].

For the molecule `CCN(CC)CCNC(=O)c1c(C)[nH]c(/C=C2\C(=O)Nc3ccc(-c4ccc(-c5cccnc5)s4)cc32)c1C`, the IC50 in test [3] is 14.3 µM; in test [2], 40.8 µM.

Consider `CCN(CC)CCNC(=O)c1c(C)[nH]c(/C=C2\C(=O)Nc3ccc(-c4csc(-c5ccc(Br)cc5)n4)cc32)c1C`, for which the IC50 in test [3] was found to be 3.68 µM; in test [2] it was 1.33 µM.

`CCN(CC)CCNC(=O)c1[nH]c(/C=C2\C(=O)Nc3ccc(-c4csc(-c5ccccc5)n4)cc32)c2c1CCCC2` registered an IC50 in test [1] of 9.91 µM.

Take `CCN(CC)CCNC(=O)c1c(C)[nH]c(/C=C2\C(=O)Nc3ccc(-c4csc(-c5cccc(Br)c5)n4)cc32)c1C`: the IC50 in test [3] amounted to 24.8 µM; in test [2] it was 7.82 µM.

For the molecule `Cc1[nH]c(/C=C2\C(=O)Nc3ccc(-c4cnc(-c5ccccc5)[nH]4)cc32)c(C)c1C(=O)N1CCN(C)CC1`, the figures for the IC50 in test [3] and in test [2] were 5.54 µM and 13.2 µM, respectively.

Take `Cc1[nH]c(/C=C2\C(=O)Nc3ccc(-c4csc(-c5ccncc5)n4)cc32)c(C)c1CCC(=O)O`: the IC50 in test [1] amounted to 14.6 µM.

With `CC(=O)N1CCC(N2CCC(c3ccc4c(c3)/C(=C/c3[nH]c(C)c(C(=O)N5CCN(C)CC5)c3C)C(=O)N4)CC2)CC1`, the IC50 in test [3] was found to be 23.2 µM; in test [2] it was 15.6 µM.

Turning to `Cc1cc(C)c(/C=C2\C(=O)Nc3cc(-c4cnc5ccccn45)ccc32)[nH]1`, the IC50 in test [3] is 19.4 µM; in test [1] it was 20.6 µM.

As for `CCN(CC)CCNC(=O)c1c(C)[nH]c(/C=C2\C(=O)Nc3ccc(-c4cs/c(=N\c5ccccc5)n4C)cc32)c1C`, the IC50 amounted to 5.35 µM in test [3] and 2.17 µM in test [2].

For the molecule `Cc1[nH]c(/C=C2\C(=O)Nc3ccc(-c4cnn(-c5ccccc5)c4C)cc32)c(C)c1C(=O)N1CCOCC1`, the IC50 in test [3] is 6.76 µM; in test [2], 37.2 µM.

For the molecule `COc1ccc(-c2ccc3c(c2)/C(=C/c2[nH]c(C)cc2C)C(=O)N3)c(C)c1`, the IC50 is 19.8 µM in test [3] and 24.8 µM in test [1].

As to `Cc1[nH]c(/C=C2\C(=O)Nc3ccc(-c4cnn(-c5ccccc5)c4C)cc32)c(C)c1C(=O)NCCN1CCCC1`, the IC50 in test [3] was 5.79 µM; in test [2], 1.31 µM.

For the molecule `Cc1[nH]c(/C=C2\C(=O)Nc3ccc(-c4ccnn4-c4ccccc4)cc32)c(C)c1C(=O)N1CCN(C)CC1`, the IC50 in test [3] is 4.55 µM; in test [2], 11.5 µM.
